Patent US9738634B2, “Heterocyclic amide compound and herbicide” (SYNGENTA PARTICIPATIONS AG, priority 2013, dated 2017)

Experiments:
Assay type in all cases: in vivo
wild oat [1] = assay: Test Example 4: weedkilling efficacy by foliar treatment; G: wild oat; conditions: treatment dosage 315 g/ha
Outline: (§1)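 Seeds are spot-sown into sterilized diluvial soil and covered with about 1.5 cm of soil. After 14 days' greenhouse growth at 25 to 30° C, plants are sprayed on stems and leaves with diluted emulsion at the stated g/ha rate, then scored at 3 weeks.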

chickweed [2] = assay: Test Example 3: weedkilling efficacy through soil treatment; N: chickweed; conditions: treatment dosage 315 g/ha
Outline: (§2)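 Crop and weed responses were judged three weeks after a uniform surface spray of the water-diluted emulsion at the given g/ha rate. Seeds sat beneath about 1.5 cm of sterilized diluvial soil, and boxes stood in a greenhouse at 25 to 30° C.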

bulrush [3] = assay: Test Example 1: weedkilling efficacy, preemergent weed treatment in the submerged state; B: bulrush; conditions: treatment dosage 252 g/ha
Outline: (§3)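 Emulsion diluted with water to the specified per-hectare dosage is applied onto flood water (4 cm) over alluvial soil on the sowing day, with barnyard grass, bulrush and pondweed seeded and rice (2.5-leaf) transplanted; plants grow at 25–30 °C and are rated at 3 weeks.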

crabgrass [4] = assay: Test Example 3: weedkilling efficacy through soil treatment; D: crabgrass; conditions: treatment dosage 315 g/ha
Outline: as §2

birds-eye speedwell [5] = assay: Test Example 4: weedkilling efficacy by foliar treatment; p: birds-eye speedwell; conditions: treatment dosage 315 g/ha
Outline: as §1

wheat [6] = assay: Test Example 4: foliar treatment, effect on crop; e: wheat; conditions: treatment dosage 315 g/ha
Outline: as §1

birds-eye speedwell [7] = assay: Test Example 3: weedkilling efficacy through soil treatment; p: birds-eye speedwell; conditions: treatment dosage 315 g/ha
Outline: as §2

soybean [8] = assay: Test Example 4: foliar treatment, effect on crop; d: soybean; conditions: treatment dosage 315 g/ha
Outline: as §1

Italian ryegrass [9] = assay: Test Example 3: weedkilling efficacy through soil treatment; I: Italian ryegrass; conditions: treatment dosage 315 g/ha
Outline: as §2

directly sown rice [10] = assay: Test Example 3: soil treatment, effect on crop; b: directly sown rice; conditions: treatment dosage 315 g/ha
Outline: as §2

barnyard grass [11] = assay: Test Example 2: weedkilling efficacy, growth period weed treatment in the submerged state; A: barnyard grass; conditions: treatment dosage 252 g/ha
Outline: (§4)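 First, alluvial soil in pots is flooded to 4 cm and mixed seed is sown. Next, plants grow in a greenhouse at 25 to 30° C until the 1-2 leaf stage. Then diluted emulsion is applied onto the water surface at the given g/ha rate, and injury is assessed after 3 weeks.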

black-grass [12] = assay: Test Example 3: weedkilling efficacy through soil treatment; H: black-grass; conditions: treatment dosage 315 g/ha
Outline: as §2

Indian mallow [13] = assay: Test Example 4: weedkilling efficacy by foliar treatment; K: Indian mallow; conditions: treatment dosage 315 g/ha
Outline: as §1

catchweed [14] = assay: Test Example 4: weedkilling efficacy by foliar treatment; O: catchweed; conditions: treatment dosage 315 g/ha
Outline: as §1

bulrush [15] = assay: Test Example 2: weedkilling efficacy, growth period weed treatment in the submerged state; B: bulrush; conditions: treatment dosage 252 g/ha
Outline: as §4

oval-leafed pondweed [16] = assay: Test Example 1: weedkilling efficacy, preemergent weed treatment in the submerged state; C: oval-leafed pondweed; conditions: treatment dosage 252 g/ha
Outline: as §3

black-grass [17] = assay: Test Example 4: weedkilling efficacy by foliar treatment; H: black-grass; conditions: treatment dosage 315 g/ha
Outline: as §1

corn [18] = assay: Test Example 3: soil treatment, effect on crop; c: corn; conditions: treatment dosage 315 g/ha
Outline: as §2

fig-leafed goosefoot [19] = assay: Test Example 3: weedkilling efficacy through soil treatment; M: fig-leafed goosefoot; conditions: treatment dosage 315 g/ha
Outline: as §2

redroot pigweed [20] = assay: Test Example 3: weedkilling efficacy through soil treatment; L: redroot pigweed; conditions: treatment dosage 315 g/ha
Outline: as §2

directly sown rice [21] = assay: Test Example 4: foliar treatment, effect on crop; b: directly sown rice; conditions: treatment dosage 315 g/ha
Outline: as §1

wild oat [22] = assay: Test Example 3: weedkilling efficacy through soil treatment; G: wild oat; conditions: treatment dosage 315 g/ha
Outline: as §2

soybean [23] = assay: Test Example 3: soil treatment, effect on crop; d: soybean; conditions: treatment dosage 315 g/ha
Outline: as §2

chickweed [24] = assay: Test Example 4: weedkilling efficacy by foliar treatment; N: chickweed; conditions: treatment dosage 315 g/ha
Outline: as §1

barnyard grass [25] = assay: Test Example 1: weedkilling efficacy, preemergent weed treatment in the submerged state; A: barnyard grass; conditions: treatment dosage 252 g/ha
Outline: as §3

catchweed [26] = assay: Test Example 3: weedkilling efficacy through soil treatment; O: catchweed; conditions: treatment dosage 315 g/ha
Outline: as §2

redroot pigweed [27] = assay: Test Example 4: weedkilling efficacy by foliar treatment; L: redroot pigweed; conditions: treatment dosage 315 g/ha
Outline: as §1

green foxtail [28] = assay: Test Example 3: weedkilling efficacy through soil treatment; E: green foxtail; conditions: treatment dosage 315 g/ha
Outline: as §2

crabgrass [29] = assay: Test Example 4: weedkilling efficacy by foliar treatment; D: crabgrass; conditions: treatment dosage 315 g/ha
Outline: as §1

wheat [30] = assay: Test Example 3: soil treatment, effect on crop; e: wheat; conditions: treatment dosage 315 g/ha
Outline: as §2

beet [31] = assay: Test Example 4: foliar treatment, effect on crop; f: beet; conditions: treatment dosage 315 g/ha
Outline: as §1

green foxtail [32] = assay: Test Example 4: weedkilling efficacy by foliar treatment; E: green foxtail; conditions: treatment dosage 315 g/ha
Outline: as §1

transplanted rice = assay: Test Example 1: preemergent weed treatment in the submerged state, effect on crop; a: transplanted rice; conditions: treatment dosage 252 g/ha
Outline: as §3

beet [33] = assay: Test Example 3: soil treatment, effect on crop; f: beet; conditions: treatment dosage 315 g/ha
Outline: as §2

oval-leafed pondweed [34] = assay: Test Example 2: weedkilling efficacy, growth period weed treatment in the submerged state; C: oval-leafed pondweed; conditions: treatment dosage 252 g/ha
Outline: as §4

fig-leafed goosefoot [35] = assay: Test Example 4: weedkilling efficacy by foliar treatment; M: fig-leafed goosefoot; conditions: treatment dosage 315 g/ha
Outline: as §1

Italian ryegrass [36] = assay: Test Example 4: weedkilling efficacy by foliar treatment; I: Italian ryegrass; conditions: treatment dosage 315 g/ha
Outline: as §1

corn [37] = assay: Test Example 4: foliar treatment, effect on crop; c: corn; conditions: treatment dosage 315 g/ha
Outline: as §1

Indian mallow [38] = assay: Test Example 3: weedkilling efficacy through soil treatment; K: Indian mallow; conditions: treatment dosage 315 g/ha
Outline: as §2

SMILES	G (wild oat) weedkilling efficacy grade (wild oat [1])	N (chickweed) weedkilling efficacy grade (chickweed [2])	B (bulrush) weedkilling efficacy grade (bulrush [3])	D (crabgrass) weedkilling efficacy grade (crabgrass [4])	P (birds-eye speedwell) weedkilling efficacy grade (birds-eye speedwell [5])	e (wheat) effect on crop grade (wheat [6])	P (birds-eye speedwell) weedkilling efficacy grade (birds-eye speedwell [7])	d (soybean) effect on crop grade (soybean [8])	I (Italian ryegrass) weedkilling efficacy grade (Italian ryegrass [9])	b (directly sown rice) effect on crop grade (directly sown rice [10])	A (barnyard grass) weedkilling efficacy grade (barnyard grass [11])	H (black-grass) weedkilling efficacy grade (black-grass [12])	K (Indian mallow) weedkilling efficacy grade (Indian mallow [13])	O (catchweed) weedkilling efficacy grade (catchweed [14])	B (bulrush) weedkilling efficacy grade (bulrush [15])	C (oval-leafed pondweed) weedkilling efficacy grade (oval-leafed pondweed [16])	H (black-grass) weedkilling efficacy grade (black-grass [17])	c (corn) effect on crop grade (corn [18])	M (fig-leafed goosefoot) weedkilling efficacy grade (fig-leafed goosefoot [19])	L (redroot pigweed) weedkilling efficacy grade (redroot pigweed [20])	also measured
CC1=C(c2cccnc2F)C(=O)N(C(C)(C)C(=O)Nc2cc(Cl)ccn2)CO1 [B-2-07]	3 (weed kill ratio 40% or more, less than 70%)	3 (weed kill ratio 40% or more, less than 70%)	5 (weed kill ratio 90% or more, (practically complete withering))	5 (weed kill ratio 90% or more, (practically complete withering))	3 (weed kill ratio 40% or more, less than 70%)	0 (weed kill ratio 5% or less (practically no effect))	5 (weed kill ratio 90% or more, (practically complete withering))	3 (weed kill ratio 40% or more, less than 70%)	5 (weed kill ratio 90% or more, (practically complete withering))	4 (weed kill ratio 70% or more, less than 90%)	3 (weed kill ratio 40% or more, less than 70%)	5 (weed kill ratio 90% or more, (practically complete withering))	1 (weed kill ratio 5% or more, less than 20%)	2 (weed kill ratio 20% or more, less than 40%)	5 (weed kill ratio 90% or more, (practically complete withering))	5 (weed kill ratio 90% or more, (practically complete withering))	4 (weed kill ratio 70% or more, less than 90%)	3 (weed kill ratio 40% or more, less than 70%)	3 (weed kill ratio 40% or more, less than 70%)	3 (weed kill ratio 40% or more, less than 70%)	b (directly sown rice) effect on crop grade (directly sown rice [21]): 4 (weed kill ratio 70% or more, less than 90%); G (wild oat) weedkilling efficacy grade (wild oat [22]): 3 (weed kill ratio 40% or more, less than 70%); d (soybean) effect on crop grade (soybean [23]): 1 (weed kill ratio 5% or more, less than 20%); N (chickweed) weedkilling efficacy grade (chickweed [24]): 2 (weed kill ratio 20% or more, less than 40%); A (barnyard grass) weedkilling efficacy grade (barnyard grass [25]): 5 (weed kill ratio 90% or more, (practically complete withering)); O (catchweed) weedkilling efficacy grade (catchweed [26]): 3 (weed kill ratio 40% or more, less than 70%); L (redroot pigweed) weedkilling efficacy grade (redroot pigweed [27]): 2 (weed kill ratio 20% or more, less than 40%); E (green foxtail) weedkilling efficacy grade (green foxtail [28]): 5 (weed kill ratio 90% or more, (practically complete withering)); D (crabgrass) weedkilling efficacy grade (crabgrass [29]): 5 (weed kill ratio 90% or more, (practically complete withering)); e (wheat) effect on crop grade (wheat [30]): 0 (weed kill ratio 5% or less (practically no effect)); f (beet) effect on crop grade (beet [31]): 3 (weed kill ratio 40% or more, less than 70%); E (green foxtail) weedkilling efficacy grade (green foxtail [32]): 4 (weed kill ratio 70% or more, less than 90%); a (transplanted rice) effect on crop grade (transplanted rice): 0 (weed kill ratio 5% or less (practically no effect)); f (beet) effect on crop grade (beet [33]): 1 (weed kill ratio 5% or more, less than 20%); C (oval-leafed pondweed) weedkilling efficacy grade (oval-leafed pondweed [34]): 2 (weed kill ratio 20% or more, less than 40%); M (fig-leafed goosefoot) weedkilling efficacy grade (fig-leafed goosefoot [35]): 3 (weed kill ratio 40% or more, less than 70%); I (Italian ryegrass) weedkilling efficacy grade (Italian ryegrass [36]): 5 (weed kill ratio 90% or more, (practically complete withering)); c (corn) effect on crop grade (corn [37]): 1 (weed kill ratio 5% or more, less than 20%); K (Indian mallow) weedkilling efficacy grade (Indian mallow [38]): 2 (weed kill ratio 20% or more, less than 40%)
CC1=C(c2cccnc2F)C(=O)N(C(C)(C)C(=O)Nc2cc(Br)ccn2)CO1 [B-2-09]	0 (weed kill ratio 5% or less (practically no effect))	2 (weed kill ratio 20% or more, less than 40%)	5 (weed kill ratio 90% or more, (practically complete withering))	5 (weed kill ratio 90% or more, (practically complete withering))	4 (weed kill ratio 70% or more, less than 90%)	0 (weed kill ratio 5% or less (practically no effect))	4 (weed kill ratio 70% or more, less than 90%)	0 (weed kill ratio 5% or less (practically no effect))	5 (weed kill ratio 90% or more, (practically complete withering))	3 (weed kill ratio 40% or more, less than 70%)	4 (weed kill ratio 70% or more, less than 90%)	4 (weed kill ratio 70% or more, less than 90%)	0 (weed kill ratio 5% or less (practically no effect))	1 (weed kill ratio 5% or more, less than 20%)	5 (weed kill ratio 90% or more, (practically complete withering))	5 (weed kill ratio 90% or more, (practically complete withering))	4 (weed kill ratio 70% or more, less than 90%)	0 (weed kill ratio 5% or less (practically no effect))	3 (weed kill ratio 40% or more, less than 70%)	0 (weed kill ratio 5% or less (practically no effect))	b (directly sown rice) effect on crop grade (directly sown rice [21]): 5 (weed kill ratio 90% or more, (practically complete withering)); G (wild oat) weedkilling efficacy grade (wild oat [22]): 3 (weed kill ratio 40% or more, less than 70%); d (soybean) effect on crop grade (soybean [23]): 0 (weed kill ratio 5% or less (practically no effect)); N (chickweed) weedkilling efficacy grade (chickweed [24]): 3 (weed kill ratio 40% or more, less than 70%); A (barnyard grass) weedkilling efficacy grade (barnyard grass [25]): 5 (weed kill ratio 90% or more, (practically complete withering)); O (catchweed) weedkilling efficacy grade (catchweed [26]): 3 (weed kill ratio 40% or more, less than 70%); L (redroot pigweed) weedkilling efficacy grade (redroot pigweed [27]): 0 (weed kill ratio 5% or less (practically no effect)); E (green foxtail) weedkilling efficacy grade (green foxtail [28]): 5 (weed kill ratio 90% or more, (practically complete withering)); D (crabgrass) weedkilling efficacy grade (crabgrass [29]): 5 (weed kill ratio 90% or more, (practically complete withering)); e (wheat) effect on crop grade (wheat [30]): 0 (weed kill ratio 5% or less (practically no effect)); f (beet) effect on crop grade (beet [31]): 1 (weed kill ratio 5% or more, less than 20%); E (green foxtail) weedkilling efficacy grade (green foxtail [32]): 5 (weed kill ratio 90% or more, (practically complete withering)); a (transplanted rice) effect on crop grade (transplanted rice): 1 (weed kill ratio 5% or more, less than 20%); f (beet) effect on crop grade (beet [33]): 1 (weed kill ratio 5% or more, less than 20%); C (oval-leafed pondweed) weedkilling efficacy grade (oval-leafed pondweed [34]): 3 (weed kill ratio 40% or more, less than 70%); M (fig-leafed goosefoot) weedkilling efficacy grade (fig-leafed goosefoot [35]): 4 (weed kill ratio 70% or more, less than 90%); I (Italian ryegrass) weedkilling efficacy grade (Italian ryegrass [36]): 4 (weed kill ratio 70% or more, less than 90%); c (corn) effect on crop grade (corn [37]): 0 (weed kill ratio 5% or less (practically no effect)); K (Indian mallow) weedkilling efficacy grade (Indian mallow [38]): 0 (weed kill ratio 5% or less (practically no effect))
